Reference: patent publication US4311689A, “Method and container for production of diagnostic scanning” (priority 1978, dated 1982)
Structures can show the parent of a compound that is named as a salt.

Assay: Bio-distribution in rats 2 hours post injection
Format: in vivo
Method: The complex was injected into rats which were sacrificed 2 hours post injection.

| Structure (SMILES) | activity excreted in the urine | activity excreted in the urine (in words) | liver retention / uptake | activity retained in the kidneys | other results |
| --- | --- | --- | --- | --- | --- |
| O=C(O)CN(CCN(CC(=O)O)CC(=O)O)CCN(CC(=O)O)CC(=O)O | greater than 95% | – | – | – | – |
| Sc1cccc2cccnc12 [8-mercapto-quinolinehydrochloride] | – | small amount | about 37% | – | blood labelling: small amount; muscle uptake: ~15%; small intestine uptake: ~20% |
| O=C(O)CC(O)(CC(=O)O)C(=O)O [citric acid] | over 70% | – | – | about 11% | concentration in any other organ: no significant concentration |
| O=C[C@H](O)[C@@H](O)[C@H](O)[C@H](O)CO [d-glucose] | – | the bulk of the injected activity | about 5% | ~29% | – |
| O=P(O)(O)CP(=O)(O)O [methylenediphosphonic acid] | – | most of the remainder | – | – | bone uptake: about 37% |
